The record followed here is PMC9250534, “Synthesis and direct assay of large macrocycle diversities by combinatorial late-stage modification at picomole scale” (Nature Communications, 2022).

This assay has as its target MDM2 (Homo sapiens, UniProt Q00987). Put plainly: MDM2 binding screen: displacement of fluorescent p53 peptide probe FP53 (fluorescence polarization). As to conditions: for fraction fluorescent probe displaced, Screen: initial screen; for fraction fluorescent probe displaced, Screen / fraction fluorescent probe displaced, Replicate: crude macrocycle reactions; for fraction fluorescent probe displaced: 10 µM macrocycle concentration, crude acylated macrocycle (scaffold Mpa-AA1-AA2-AA3 x carboxylic acid), p53-based fluorescent peptide, human MDM2. The procedure, abridged:
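Macrocycle reaction products at a final 10 µM were tested for displacement of a p53-based fluorescent peptide from human MDM2. Fluorescence anisotropy (ex 485/em 535 nm) was read once per macrocycle at 25 °C.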
For orientation: Polarisation of emitted light reports the rotation of a fluorescent probe.

Numbered stars: 1 amine (or outer) side, 2 acyl side, 3 side chain; on linkers, the order of the positions; unused ones are H or OH. Bridge positions count the residues as written; N and C are the ends. Square brackets hold non-standard residues; d marks the D form. Side chains are listed from the residue outwards. Peptide text beside a SMILES is read from it. * marks the point of attachment. Benzoyl(3-CF3) = O=C(c1cccc(C(F)(F)F)c1)*; 2Thenoyl(5-Cl) = O=C(c1ccc(Cl)s1)*; Benzoyl(4-Cl) = O=C(c1ccc(Cl)cc1)*; Pentanoyl(4-Me) = CC(C)CCC(=O)*; Cysteamide = C(CS[*:3])N[*:1]; Me3Gly = C[N+](C)(C)CC(=O)*; X1 = O=C(/C=C/c1ccccc1)*; Api = NC1(C(=O)O)CCNCC1; Dap = NC[C@H](N)C(=O)O; Inp = O=C(O)C1CCNCC1; Ms = CS(=O)(=O)*; Mpa = O=C(O)CCS

Sequence of MDM2 (Q00987 whole entry, the tested form may be a part): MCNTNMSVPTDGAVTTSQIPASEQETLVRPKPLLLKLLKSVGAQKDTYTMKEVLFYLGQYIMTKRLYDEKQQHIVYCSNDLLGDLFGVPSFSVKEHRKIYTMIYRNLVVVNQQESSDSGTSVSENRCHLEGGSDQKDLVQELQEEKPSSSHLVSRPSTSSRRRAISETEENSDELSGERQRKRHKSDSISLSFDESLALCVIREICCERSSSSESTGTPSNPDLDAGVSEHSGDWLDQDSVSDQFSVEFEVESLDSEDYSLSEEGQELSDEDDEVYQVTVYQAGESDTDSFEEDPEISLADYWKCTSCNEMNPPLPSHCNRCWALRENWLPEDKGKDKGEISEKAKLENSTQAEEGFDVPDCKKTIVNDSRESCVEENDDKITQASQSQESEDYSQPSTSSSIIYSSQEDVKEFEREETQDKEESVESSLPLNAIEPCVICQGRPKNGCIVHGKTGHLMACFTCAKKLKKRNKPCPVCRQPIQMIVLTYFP

As for `O=C1CCSSCCNC(=O)[C@@H]2CCCN2C(=O)[C@H](Cc2c[nH]c3ccccc23)NC(=O)C2(CCN(C(=O)/C=C/c3ccccc3)CC2)N1` [X D6 W B1 Acid 91] ([Mpa][Api](X1)WP-Cysteamide; disulfide 1-C), under “Acid 91”, the “fraction fluorescent probe displaced, Screen” value worked out at 0.08 and the “fraction fluorescent probe displaced, Replicate” value came to 0.04.
With `O=C1CCNC(=O)[C@H](Cc2c[nH]c3ccccc23)NC(=O)CCSSCCNC(=O)[C@H](CNC(=O)c2ccc(Cl)cc2)N1` [X W B2 D3 Acid 25], under “Acid 25”, the “fraction fluorescent probe displaced, Screen” value amounted to 0.28 and the “fraction fluorescent probe displaced, Replicate” value is reported as 0.22.
On to `O=C1CCNC(=O)C2(CCN(C(=O)c3ccc(Cl)s3)CC2)NC(=O)[C@H](Cc2ccccc2)NC(=O)CCSSCCN1` [X F D6 B2 Acid 14], for which, for the setting “Acid 14”, the “fraction fluorescent probe displaced, Screen” value is -0.00483 and the “fraction fluorescent probe displaced, Replicate” value is 0.0465.
As to `O=C1CCSSCCNC(=O)c2cccc(c2)CNC(=O)C2(CCN(C(=O)c3ccc(Cl)cc3)CC2)NC(=O)C(Cc2ccccc2)N1` (stereo not shown) [X F D6 B5 Acid 25], under “Acid 25”, the “fraction fluorescent probe displaced, Screen” value is listed as -0.00813 and the “fraction fluorescent probe displaced, Replicate” value was 0.12.
For `O=C(NC[C@@H]1NC(=O)[C@H](Cc2ccccc2)NC(=O)[C@@H]2CCCN2C(=O)CCSSCCNC1=O)c1ccc(Cl)s1` [X B1 F D3 Acid 14] ([Mpa]PF[Dap](2Thenoyl(5-Cl))-Cysteamide; disulfide 1-C), where the note is “Acid 14”, the “fraction fluorescent probe displaced, Screen” value was 0.08 and the “fraction fluorescent probe displaced, Replicate” value is given as 0.10.
Taken in the same sequence, the figures for `O=C1CCSSCCNC(=O)C2(CCN(C(=O)c3ccc(Cl)s3)CC2)NC(=O)[C@H]2CCCN(C2)C(=O)[C@H](Cc2ccccc2)N1` [X F B4 D6 Acid 14] were 0.08 and 0.20.
Consider `CC(C)CCC(=O)NC[C@@H]1NC(=O)[C@@H]2CCCN2C(=O)CCSSCCNC(=O)[C@H](Cc2ccccc2)NC1=O` [X-B1-D3-F + A68] ([Mpa]P[Dap](Pentanoyl(4-Me))F-Cysteamide; disulfide 1-C), for which the “fraction fluorescent probe displaced” value is on record as -0.1369.
For `O=C1CCSSCCNC(=O)[C@H]2CCCN(C2)C(=O)[C@H](Cc2ccccc2)NC(=O)[C@H](CNC(=O)c2ccc(Cl)s2)N1` [X D3 F B4 Acid 14], where the note is “Acid 14”, the “fraction fluorescent probe displaced, Screen” value worked out at 0.053 and the “fraction fluorescent probe displaced, Replicate” value was -0.03.
Consider `O=C1CCSSCCNC(=O)C2(CCN(C(=O)c3ccc(Cl)cc3)CC2)NC(=O)[C@H](Cc2ccccc2)NC(=O)CCN1` [X B2 F D6 Acid 25], for which, for the setting “Acid 25”, the “fraction fluorescent probe displaced, Screen” value was -0.17 and the “fraction fluorescent probe displaced, Replicate” value is recorded as 0.0465.
`O=C(NC[C@@H]1NC(=O)[C@@H]2CCCN2C(=O)CCSSCCNC(=O)[C@H](Cc2ccccc2)NC1=O)c1cccc(C(F)(F)F)c1` [X-B1-D3-F + A18] ([Mpa]P[Dap](Benzoyl(3-CF3))F-Cysteamide; disulfide 1-C): the “fraction fluorescent probe displaced” value stood at 0.09317.
Turning to `O=C1CCSSCCNC(=O)C2CN(C(=O)C=Cc3ccccc3)CCN2C(=O)C2CCCN2C(=O)C(Cc2c[nH]c3ccccc23)N1` (mixture of isomers) [X W B1 D7 Acid 91], under “Acid 91”, the “fraction fluorescent probe displaced, Screen” value was found to be 0.22 and the “fraction fluorescent probe displaced, Replicate” value is 0.07.
Taken in the same sequence, the figures for `O=C1CCSSCCNC(=O)C2CN(C(=O)C=Cc3ccccc3)CCN2C(=O)CCNC(=O)C(Cc2ccccc2)N1` (stereo not shown) [X F B2 D7 Acid 91] were 0.03 and 0.04.
On to `O=C1CCSSCCNC(=O)c2cccc(c2)CNC(=O)C(Cc2ccccc2)NC(=O)C(CNC(=O)c2ccc(Cl)cc2)N1` (stereo not shown) [X D3 F B5 Acid 25], for which, under “Acid 25”, the “fraction fluorescent probe displaced, Screen” value stood at 0.0569 and the “fraction fluorescent probe displaced, Replicate” value came to 0.10.
Turning to `O=C(/C=C/c1ccccc1)NC[C@@H]1NC(=O)[C@@H]2CCCN2C(=O)CCSSCCNC(=O)[C@H](Cc2c[nH]c3ccccc23)NC1=O` [X-B1-D3-W + A91] ([Mpa]P[Dap](X1)W-Cysteamide; disulfide 1-C), the “fraction fluorescent probe displaced” value stood at 0.1099.
The same measure, in the same setting: the value for `CS(=O)(=O)N1CCC(C(=O)NC[C@@H]2NC(=O)[C@@H]3CCCN3C(=O)CCSSCCNC(=O)[C@H](Cc3ccccc3)NC2=O)CC1` [X-B1-D3-F + A57] ([Mpa]P[Dap]([Inp-Ms])F-Cysteamide; disulfide 1-C) was -0.1145.
As to `O=C1NCCSSCCC(=O)N2CCN(C(=O)c3ccc(Cl)s3)CC2C(=O)NC(Cc2ccccc2)C(=O)NCc2cccc1c2` (mixture of isomers) [X D7 F B5 Acid 14], under “Acid 14”, the “fraction fluorescent probe displaced, Screen” value worked out at 0.11 and the “fraction fluorescent probe displaced, Replicate” value stood at 0.17.
Turning to `O=C1CCSSCCNC(=O)c2cccc(c2)CNC(=O)C2(CCN(C(=O)/C=C/c3ccccc3)CC2)NC(=O)[C@H](Cc2ccccc2)N1` [X F D6 B5 Acid 91], where the note is “Acid 91”, the “fraction fluorescent probe displaced, Screen” value is reported as -0.0241 and the “fraction fluorescent probe displaced, Replicate” value is on record as -0.0333.
Take `O=C1CCSSCCNC(=O)[C@H]2CCCN(C2)C(=O)[C@H](Cc2c[nH]c3ccccc23)NC(=O)C2(CCN(C(=O)/C=C/c3ccccc3)CC2)N1` [X D6 W B4 Acid 91]: where the note is “Acid 91”, the “fraction fluorescent probe displaced, Screen” value worked out at 0.14 and the “fraction fluorescent probe displaced, Replicate” value was found to be 0.07.
Consider `O=C(N[C@H]1C[C@H]2C(=O)NCc3cccc(c3)C(=O)N[C@@H](Cc3ccccc3)C(=O)NCCSSCCC(=O)N2C1)c1ccc(Cl)cc1` [X D5 B5 F Acid 25], for which, where the note is “Acid 25”, the “fraction fluorescent probe displaced, Screen” value is -0.00813 and the “fraction fluorescent probe displaced, Replicate” value turned out to be 0.15.
Regarding `O=C1CCSSCCNC(=O)[C@@H]2CCCN2C(=O)[C@H](Cc2ccccc2)NC(=O)C2(CCN(C(=O)/C=C/c3ccccc3)CC2)N1` [X D6 F B1 Acid 91] ([Mpa][Api](X1)FP-Cysteamide; disulfide 1-C), under “Acid 91”, the “fraction fluorescent probe displaced, Screen” value was -0.05 and the “fraction fluorescent probe displaced, Replicate” value is recorded as -0.08.
Consider `O=C1CCSSCCNC(=O)[C@H](Cc2ccccc2)NC(=O)[C@@H]2CCCN2C(=O)C2(CCN(C(=O)c3ccc(Cl)cc3)CC2)N1` [X D6 B1 F Acid 25] ([Mpa][Api](Benzoyl(4-Cl))PF-Cysteamide; disulfide 1-C), for which, where the note is “Acid 25”, the “fraction fluorescent probe displaced, Screen” value is on record as 0.0569 and the “fraction fluorescent probe displaced, Replicate” value is listed as 0.07.
Regarding `O=C1NCCSSCCC(=O)N2C[C@@H](NC(=O)c3ccc(Cl)cc3)C[C@H]2C(=O)N[C@@H](Cc2c[nH]c3ccccc23)C(=O)NCc2cccc1c2` [X D5 W B5 Acid 25], under “Acid 25”, the “fraction fluorescent probe displaced, Screen” value is 0.0569 and the “fraction fluorescent probe displaced, Replicate” value came out at 0.0465.
For the molecule `O=C1CCSSCCNC(=O)[C@H](Cc2ccccc2)NC(=O)[C@@H]2CCCN2C(=O)[C@H](CNC(=O)c2ccc(Cl)cc2)N1` [X D3 B1 F Acid 25] ([Mpa][Dap](Benzoyl(4-Cl))PF-Cysteamide; disulfide 1-C), where the note is “Acid 25”, the “fraction fluorescent probe displaced, Screen” value came out at 0.15 and the “fraction fluorescent probe displaced, Replicate” value amounted to 0.12.
For the molecule `O=C1NC(Cc2c[nH]c3ccccc23)C(=O)NCCSSCCC(=O)N2CCN(C(=O)c3ccc(Cl)cc3)CC2C(=O)N2CCCC1C2` (mixture of isomers) [X D7 B4 W Acid 25], where the note is “Acid 25”, the “fraction fluorescent probe displaced, Screen” value turned out to be 0.25 and the “fraction fluorescent probe displaced, Replicate” value is on record as 0.25.
In the case of `O=C(/C=C/c1ccccc1)NC[C@@H]1NC(=O)CCNC(=O)CCSSCCNC(=O)[C@H](Cc2ccccc2)NC1=O` [X B2 D3 F Acid 91], where the note is “Acid 91”, the “fraction fluorescent probe displaced, Screen” value came to 0.0563 and the “fraction fluorescent probe displaced, Replicate” value is given as -0.00827.
For `O=C(/C=C/c1ccccc1)NC[C@@H]1NC(=O)[C@H](Cc2ccccc2)NC(=O)CCNC(=O)CCSSCCNC1=O` [X B2 F D3 Acid 91] the same measures were 0.03 and -0.11.
Take `O=C1CCSSCCNC(=O)C2(CCN(C(=O)/C=C/c3ccccc3)CC2)NC(=O)[C@H](Cc2ccccc2)NC(=O)CCN1` [X B2 F D6 Acid 91]: where the note is “Acid 91”, the “fraction fluorescent probe displaced, Screen” value amounted to 0.0563 and the “fraction fluorescent probe displaced, Replicate” value came out at 0.12.
As for `C[N+](C)(C)CC(=O)NC[C@@H]1NC(=O)[C@@H]2CCCN2C(=O)CCSSCCNC(=O)[C@H](Cc2c[nH]c3ccccc23)NC1=O` [X-B1-D3-W + A92] ([Mpa]P[Dap](Me3Gly)W-Cysteamide; disulfide 1-C), the “fraction fluorescent probe displaced” value is reported as -0.1286.
Take `O=C1CCNC(=O)[C@H](Cc2ccccc2)NC(=O)C2(CCN(C(=O)/C=C/c3ccccc3)CC2)NC(=O)CCSSCCN1` [X D6 F B2 Acid 91]: for the setting “Acid 91”, the “fraction fluorescent probe displaced, Screen” value was 0.14 and the “fraction fluorescent probe displaced, Replicate” value is 0.04.
With `O=C1NC(Cc2c[nH]c3ccccc23)C(=O)N2CCCC2C(=O)NCCSSCCC(=O)N2CCN(C(=O)C=Cc3ccccc3)CC12` (stereo not shown) [X D7 W B1 Acid 91], for the setting “Acid 91”, the “fraction fluorescent probe displaced, Screen” value is -0.0241 and the “fraction fluorescent probe displaced, Replicate” value is -0.00827.
For the molecule `O=C1CCSSCCNC(=O)[C@@H]2CCCN2C(=O)[C@H](Cc2c[nH]c3ccccc23)NC(=O)C2(CCN(C(=O)c3ccc(Cl)cc3)CC2)N1` [X D6 W B1 Acid 25] ([Mpa][Api](Benzoyl(4-Cl))WP-Cysteamide; disulfide 1-C), under “Acid 25”, the “fraction fluorescent probe displaced, Screen” value is 0.25 and the “fraction fluorescent probe displaced, Replicate” value is reported as 0.20.
Turning to `O=C1CCSSCCNC(=O)[C@H](CNC(=O)c2ccc(Cl)cc2)NC(=O)[C@H](Cc2ccccc2)NC(=O)c2cccc(c2)CN1` [X B5 F D3 Acid 25], for the setting “Acid 25”, the “fraction fluorescent probe displaced, Screen” value came to 0.09 and the “fraction fluorescent probe displaced, Replicate” value is listed as 0.0465.
Take `O=C1CCSSCCNC(=O)[C@@H]2CCCN2C(=O)C2(CCN(C(=O)c3ccc(Cl)cc3)CC2)NC(=O)[C@H](Cc2ccccc2)N1` [X F D6 B1 Acid 25] ([Mpa]F[Api](Benzoyl(4-Cl))P-Cysteamide; disulfide 1-C): for the setting “Acid 25”, the “fraction fluorescent probe displaced, Screen” value amounted to 0.0244 and the “fraction fluorescent probe displaced, Replicate” value stood at 0.17.
